Active and inactive are the calls of the source.
What was measured:
[1] = Drug uptake in Sprague-Dawley rat brain at 1 mg/kg, iv measured after 15 mins; format: ADME, organism-based; design: dose 1 mg/kg, route intravenous; settings: read-out: Drug uptake
[2] = Drug uptake in Sprague-Dawley rat brain at 1 mg/kg, iv measured after 1 hr; format: ADME, organism-based; design: dose 1 mg/kg, route intravenous; settings: read-out: Drug uptake
[3] = target: Potassium voltage-gated channel subfamily KQT member 2 (Mus musculus) (UniProt Q9Z351); experiment: Induction of mouse KCNQ2 expressed in HEK293 cells at -40 mV holding potential by whole-cell patch clamp assay relative to retigabine; format: cell-based
Chain of Potassium voltage-gated channel subfamily KQT member 2 (Mus musculus) (Q9Z351 whole entry): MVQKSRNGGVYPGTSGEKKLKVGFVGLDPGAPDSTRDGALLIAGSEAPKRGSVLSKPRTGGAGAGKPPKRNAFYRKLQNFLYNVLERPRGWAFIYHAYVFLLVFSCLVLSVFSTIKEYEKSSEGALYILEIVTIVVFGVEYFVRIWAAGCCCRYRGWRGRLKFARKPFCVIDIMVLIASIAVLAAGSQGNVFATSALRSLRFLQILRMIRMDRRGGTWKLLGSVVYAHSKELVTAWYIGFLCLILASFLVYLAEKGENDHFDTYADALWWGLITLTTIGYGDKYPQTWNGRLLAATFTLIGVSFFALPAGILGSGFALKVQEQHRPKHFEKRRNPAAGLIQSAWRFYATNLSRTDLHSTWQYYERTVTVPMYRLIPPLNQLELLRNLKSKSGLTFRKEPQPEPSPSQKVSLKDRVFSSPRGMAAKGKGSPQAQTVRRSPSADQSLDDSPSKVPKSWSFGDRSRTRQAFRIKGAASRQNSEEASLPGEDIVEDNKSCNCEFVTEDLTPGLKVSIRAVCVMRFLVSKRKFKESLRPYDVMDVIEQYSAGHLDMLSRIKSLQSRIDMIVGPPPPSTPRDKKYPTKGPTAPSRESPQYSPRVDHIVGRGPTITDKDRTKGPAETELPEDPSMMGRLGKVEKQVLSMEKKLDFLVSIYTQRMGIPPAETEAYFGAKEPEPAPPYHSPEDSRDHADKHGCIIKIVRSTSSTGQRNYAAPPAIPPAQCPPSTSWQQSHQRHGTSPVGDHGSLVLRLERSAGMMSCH

[4] = target: Potassium voltage-gated channel subfamily KQT member 2 (Mus musculus) (UniProt Q9Z351); experiment: Induction of mouse KCNQ2 expressed in HEK293 cells at -40 mV holding potential by whole-cell patch clamp assay relative to (+/-)-N-(1-(benzo[d][1,3]dioxol-5-yl)ethyl)-3-(2-chlorophenyl)acrylamide; format: cell-based
Rattus norvegicus [5] = experiment: Analgesic activity in STZ-induced diabetic neuropathy rat model assessed as prolongation of reversal of hypersensitivity time at 3 mg/kg, iv measured after 15 to 90 mins relative to vehicle-treated control; format: functional
Rattus norvegicus [6] = experiment: Analgesic activity in rat assessed reduction formalin-induced initial pain response at 10 mg/kg, iv administered 2 mins before formalin challenge; format: functional, organism-based; design: dose 10 mg/kg
Rattus norvegicus [7] = experiment: Analgesic activity in rat assessed reduction formalin-induced second phase pain response at 10 mg/kg, iv administered 8 mins post formalin challenge; format: functional, organism-based; design: dose 10 mg/kg
Rattus norvegicus [8] = experiment: Analgesic activity in Sprague-Dawley rat L5/L6 spinal nerve injury Chung model of neuropathic pain assessed as […] hair-induced paw withdrawal threshold at 10 mg/kg, iv measured after 15 mins relative to vehicle-treated control; format: functional, organism-based; design: dose 10 mg/kg
Rattus norvegicus [9] = experiment: Toxicity in Sprague-Dawley rat assessed as […] at 10 mg/kg, iv after 10 mins by rotorod test; format: organism-based; design: dose 10 mg/kg, route intravenous; settings: in vivo
[10] = target: Potassium voltage-gated channel subfamily KQT member 2 (Mus musculus, UniProt Q9Z351); experiment: Induction of mouse KCNQ2 expressed in HEK293 cells at -40 mV holding potential by whole-cell patch clamp assay; format: cell-based
Chain of Potassium voltage-gated channel subfamily KQT member 2 (Q9Z351 whole entry): as above

Rattus norvegicus [11] = experiment: Analgesic activity in Sprague-Dawley rat L5/L6 spinal nerve injury Chung model of neuropathic pain assessed as […] hair-induced paw withdrawal threshold at 3 mg/kg, iv measured after 15 to 90 mins relative to vehicle-treated control; format: functional, organism-based; design: dose 3 mg/kg
Rattus norvegicus [12] = experiment: Analgesic activity in Sprague-Dawley rat L5/L6 spinal nerve injury Chung model of neuropathic pain assessed as […] hair-induced paw withdrawal threshold at 100 mg/kg, iv measured after 15 to 90 mins relative to vehicle-treated control; format: functional, organism-based; design: dose 100 mg/kg
Rattus norvegicus [13] = experiment: Analgesic activity in rat assessed reduction formalin-induced second phase pain response at 100 mg/kg, iv administered 8 mins post formalin challenge; format: functional, organism-based; design: dose 100 mg/kg
Rattus norvegicus [14] = experiment: Analgesic activity in rat assessed reduction formalin-induced initial pain response at 100 mg/kg, iv administered 2 mins before formalin challenge; format: functional, organism-based; design: dose 100 mg/kg

## C[C@H](NC(=O)/C=C/c1ccccc1F)c1cccc(Oc2cccnc2)c1
[1]
  concentration at 0.25 h: 2 µM
[2]
  concentration at 1 h: 0.56 µM
[3]
  Efficacy: 38%
[4]
  Ratio: 2.2
Rattus norvegicus [5]
  Time: 15 min
Rattus norvegicus [6]
  Activity: Active
Rattus norvegicus [7]
  Activity: Active
Rattus norvegicus [8]
  Activity: Active
Rattus norvegicus [9]
  Activity: Non-toxic
[10]
  EC50: 2.4 nM
Rattus norvegicus [11]
  Activity: inactive

## CCOC(=O)Nc1ccc(NCc2ccc(F)cc2)cc1N
[4]
  Ratio: 1.6

## C[C@H](NC(=O)/C=C/c1ccccc1F)c1cccc(-c2ccc(F)nc2)c1
[4]
  Ratio: 0.85

## C[C@H](NC(=O)/C=C/c1ccccc1F)c1ccc2c(c1)N(CC1CC1)CCO2
[4]
  Ratio: 1.8

## C[C@@H](NC(=O)/C=C/c1cc(F)ccc1F)c1cccc(Oc2ccncc2)c1
[10]
  EC50: > 10000 nM

## C[C@H](NC(=O)/C=C/c1ccccc1Cl)c1ccc2c(c1)OCO2
[4]
  Ratio: 1.1

## NCC1(CC(=O)O)CCCCC1
Rattus norvegicus [12]
  Activity: Active
Rattus norvegicus [13]
  Activity: Active
Rattus norvegicus [14]
  Activity: inactive

## C[C@H](NC(=O)/C=C/c1ccccc1)c1cccc(N2CCOCC2)c1
[4]
  Ratio: 1.4

## C[C@@H](NC(=O)/C=C/c1ccccc1F)c1cccc(Oc2cccnc2)c1
[10]
  EC50: > 10000 nM

## C[C@H](NC(=O)/C=C/c1cc(F)ccc1F)c1cccc(Oc2ccncc2)c1
[1]
  concentration at 0.25 h: 0.16 µM
[2]
  concentration at 1 h: 0.042 µM
[4]
  Ratio: 2.9
Rattus norvegicus [8]
  Activity: Active
[10]
  EC50: 0.9 nM
